Reference: ChEMBL document CHEMBL6083186, “Chromenone: An emerging scaffold in anti-Alzheimer drug discovery” (Bioorg Med Chem Lett, 2024)
In brackets after ≈: the same amount, converted by molar mass.

Assays:
Cholinesterase [1] = target: T1, Cholinesterase (Equus caballus, UniProt P81908); assay: Inhibition of equine BuChE
Acetylcholinesterase [2] = target: T2, Acetylcholinesterase (Homo sapiens, UniProt P22303); assay: Inhibition of AChE (unknown origin) by Ellman's method
Cholinesterase [3] = target: T3, Cholinesterase (Homo sapiens, UniProt P06276); assay: Inhibition of BChE (unknown origin) by Ellman's method
Beta-secretase 1 [4] = target: T4, Beta-secretase 1 (Homo sapiens, UniProt P56817); assay: Inhibition of BACE1 (unknown origin)
Cholinesterase [5] = target: T1, Cholinesterase; assay: Inhibition of equine serum BChE using butyrylthiocholine iodide as substrate by DTNB reagent based Ellman's method
Beta-secretase 1 [6] = target: T4, Beta-secretase 1; assay: Inhibition of BACE1 (unknown origin) using Rh-EVNLDAEFK-Quencher as substrate incubated for 1 hr by FRET assay
[7] = target: T5, Amine oxidase [flavin-containing] B (Homo sapiens, UniProt P27338); assay: Inhibition of MAO-B (unknown origin)
T5 sequence (P27338 whole entry): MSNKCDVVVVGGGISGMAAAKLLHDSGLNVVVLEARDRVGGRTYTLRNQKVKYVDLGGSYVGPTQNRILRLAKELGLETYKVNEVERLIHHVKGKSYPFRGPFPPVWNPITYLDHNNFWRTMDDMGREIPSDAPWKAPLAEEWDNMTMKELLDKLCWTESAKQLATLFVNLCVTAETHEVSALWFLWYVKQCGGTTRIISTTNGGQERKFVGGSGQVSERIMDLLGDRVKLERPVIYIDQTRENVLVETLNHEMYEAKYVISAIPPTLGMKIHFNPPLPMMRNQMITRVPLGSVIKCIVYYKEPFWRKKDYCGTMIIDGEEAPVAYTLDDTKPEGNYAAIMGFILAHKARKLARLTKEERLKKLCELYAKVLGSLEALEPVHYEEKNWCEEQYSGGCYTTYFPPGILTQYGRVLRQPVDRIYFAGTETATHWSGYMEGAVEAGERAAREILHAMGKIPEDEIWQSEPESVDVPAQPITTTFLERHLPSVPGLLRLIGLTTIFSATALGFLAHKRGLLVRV

Acetylcholinesterase [8] = target: T2, Acetylcholinesterase; assay: Inhibition of AChE (unknown origin)
Cholinesterase [9] = target: T3, Cholinesterase; assay: Inhibition of BuChE (unknown origin)
Beta-secretase 1 [10] = target: T4, Beta-secretase 1; assay: Inhibition of BACE1 (unknown origin) by FRET assay
Acetylcholinesterase [11] = target: Acetylcholinesterase (Electrophorus electricus, UniProt O42275); assay: Inhibition of electric eel AChE
Cholinesterase [12] = target: T1, Cholinesterase; assay: Inhibition of equine BChE using BTCh as substrate incubated for 15 mins by Ellmans method
Acetylcholinesterase [13] = target: T2, Acetylcholinesterase; assay: Inhibition of human recombinant AChE using acetylthiocholine iodide as substrate preincubated for 15 mins followed by substrate addition measured for 10 mins DTNB reagent based Ellman's method
[14] = Antioxidant activity assessed as DPPH radical scavenging activity; type: functional
Cholinesterase [15] = target: T3, Cholinesterase; assay: Inhibition of human BuChE using butyrylthiocholine iodide as substrate pre-incubated for 10 mins followed by substrate addition and measured for 15 mins by Ellman's method
Acetylcholinesterase [16] = target: T2, Acetylcholinesterase; assay: Inhibition of human AChE using […] as substrate incubated for 20 mins by DTNB reagent based Ellman's method
Homo sapiens = species on record: Homo sapiens; assay: Selectivity index, ratio of IC50 for human BuChE to IC50 for human AChE

T4 sequence (P56817 whole entry): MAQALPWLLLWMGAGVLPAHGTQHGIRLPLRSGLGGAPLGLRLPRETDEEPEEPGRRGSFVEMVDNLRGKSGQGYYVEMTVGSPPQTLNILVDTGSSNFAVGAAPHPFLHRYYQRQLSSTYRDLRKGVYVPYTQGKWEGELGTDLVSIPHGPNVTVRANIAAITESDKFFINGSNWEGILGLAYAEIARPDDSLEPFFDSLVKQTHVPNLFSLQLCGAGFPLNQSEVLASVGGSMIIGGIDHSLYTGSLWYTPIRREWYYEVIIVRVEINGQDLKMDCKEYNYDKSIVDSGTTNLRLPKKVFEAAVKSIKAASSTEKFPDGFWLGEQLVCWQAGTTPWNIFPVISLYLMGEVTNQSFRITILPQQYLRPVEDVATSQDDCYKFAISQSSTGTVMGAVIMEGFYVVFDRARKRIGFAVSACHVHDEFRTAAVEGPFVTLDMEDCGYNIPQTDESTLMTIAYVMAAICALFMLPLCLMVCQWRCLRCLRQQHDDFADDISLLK
T1 sequence (P81908 whole entry): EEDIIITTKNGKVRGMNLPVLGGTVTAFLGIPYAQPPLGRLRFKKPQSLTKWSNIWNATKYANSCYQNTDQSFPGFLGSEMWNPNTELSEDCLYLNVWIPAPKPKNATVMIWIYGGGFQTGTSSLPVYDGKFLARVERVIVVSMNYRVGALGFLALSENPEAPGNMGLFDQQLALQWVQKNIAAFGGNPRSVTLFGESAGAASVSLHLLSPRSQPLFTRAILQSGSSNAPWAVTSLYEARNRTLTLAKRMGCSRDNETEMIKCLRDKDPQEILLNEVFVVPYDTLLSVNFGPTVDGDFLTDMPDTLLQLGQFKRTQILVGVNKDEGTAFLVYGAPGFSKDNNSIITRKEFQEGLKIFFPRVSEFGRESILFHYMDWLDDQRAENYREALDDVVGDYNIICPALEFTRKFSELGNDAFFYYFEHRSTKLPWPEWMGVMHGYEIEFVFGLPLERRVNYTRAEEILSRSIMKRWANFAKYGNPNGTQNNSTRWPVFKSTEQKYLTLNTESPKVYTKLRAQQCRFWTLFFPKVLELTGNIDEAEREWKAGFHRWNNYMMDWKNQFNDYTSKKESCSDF
T2 sequence (P22303 whole entry): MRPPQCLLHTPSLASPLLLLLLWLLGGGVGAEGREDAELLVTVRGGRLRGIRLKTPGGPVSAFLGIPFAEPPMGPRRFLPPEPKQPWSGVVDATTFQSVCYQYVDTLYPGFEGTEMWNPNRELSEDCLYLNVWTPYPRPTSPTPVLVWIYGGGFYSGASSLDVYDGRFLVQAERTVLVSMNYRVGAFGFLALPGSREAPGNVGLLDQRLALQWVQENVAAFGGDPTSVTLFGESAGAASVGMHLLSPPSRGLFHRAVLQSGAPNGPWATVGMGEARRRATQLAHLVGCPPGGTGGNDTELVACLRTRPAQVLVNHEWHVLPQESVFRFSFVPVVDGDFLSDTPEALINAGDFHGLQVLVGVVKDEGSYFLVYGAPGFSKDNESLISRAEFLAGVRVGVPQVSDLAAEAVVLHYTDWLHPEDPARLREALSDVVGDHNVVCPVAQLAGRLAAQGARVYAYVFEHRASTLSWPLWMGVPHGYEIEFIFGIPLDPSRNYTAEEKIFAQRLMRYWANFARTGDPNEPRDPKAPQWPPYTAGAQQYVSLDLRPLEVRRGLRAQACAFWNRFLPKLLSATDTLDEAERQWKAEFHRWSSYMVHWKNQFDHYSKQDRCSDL
T3 sequence (P06276 whole entry): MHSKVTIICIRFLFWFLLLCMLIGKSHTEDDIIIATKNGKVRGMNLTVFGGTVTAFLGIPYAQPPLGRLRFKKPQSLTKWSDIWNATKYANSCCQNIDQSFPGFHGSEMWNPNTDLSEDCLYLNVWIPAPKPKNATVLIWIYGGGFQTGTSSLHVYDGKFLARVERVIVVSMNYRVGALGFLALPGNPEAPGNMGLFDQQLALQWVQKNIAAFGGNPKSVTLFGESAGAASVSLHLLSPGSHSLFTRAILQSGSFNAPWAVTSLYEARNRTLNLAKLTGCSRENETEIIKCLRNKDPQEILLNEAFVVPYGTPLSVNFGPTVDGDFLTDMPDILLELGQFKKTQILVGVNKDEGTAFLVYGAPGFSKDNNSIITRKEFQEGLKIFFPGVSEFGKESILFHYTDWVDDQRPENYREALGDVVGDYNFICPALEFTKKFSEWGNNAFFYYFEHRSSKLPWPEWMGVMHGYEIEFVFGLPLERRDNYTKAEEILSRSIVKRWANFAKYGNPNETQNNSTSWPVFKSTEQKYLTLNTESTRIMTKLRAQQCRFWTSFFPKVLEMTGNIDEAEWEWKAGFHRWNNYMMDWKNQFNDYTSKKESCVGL
Acetylcholinesterase (Electrophorus electricus, UniProt O42275), sequence (O42275 whole entry): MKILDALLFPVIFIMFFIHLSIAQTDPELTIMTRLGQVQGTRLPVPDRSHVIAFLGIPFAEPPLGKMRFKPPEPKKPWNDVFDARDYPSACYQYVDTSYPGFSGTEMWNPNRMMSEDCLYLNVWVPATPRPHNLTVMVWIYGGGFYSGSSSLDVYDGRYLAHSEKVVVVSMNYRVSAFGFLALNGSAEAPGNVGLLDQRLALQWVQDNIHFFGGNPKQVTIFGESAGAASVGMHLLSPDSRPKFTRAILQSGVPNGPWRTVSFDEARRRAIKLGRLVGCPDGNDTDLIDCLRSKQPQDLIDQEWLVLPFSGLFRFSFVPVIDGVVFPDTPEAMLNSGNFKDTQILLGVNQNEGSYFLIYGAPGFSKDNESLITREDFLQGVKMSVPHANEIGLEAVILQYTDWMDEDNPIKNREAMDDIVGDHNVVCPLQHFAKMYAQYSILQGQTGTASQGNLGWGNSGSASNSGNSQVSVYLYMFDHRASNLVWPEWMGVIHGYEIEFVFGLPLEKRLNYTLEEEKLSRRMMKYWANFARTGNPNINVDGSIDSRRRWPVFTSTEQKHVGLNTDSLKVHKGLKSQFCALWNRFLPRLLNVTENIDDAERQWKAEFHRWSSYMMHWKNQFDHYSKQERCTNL

Q: Which IC50 (Cholinesterase [1]) does the source give for `COc1cccc2cc(-c3ccc(NC(=O)c4ccc(F)cc4)cc3)c(=O)oc12` here?
A: 0.55 µM

Q: Which IC50 (Acetylcholinesterase [2]) does the source give for `COc1cc(Cn2cc(COc3ccc4ccc(=O)oc4c3C(C)=O)nn2)cc(OC)c1` here?
A: 2.57 µM

Q: What about the IC50 (Cholinesterase [3]) of the same compound?
A: 3.26 µM

Q: And the IC50 (Beta-secretase 1 [4])?
A: 10.7 µM

Q: Which IC50 (Beta-secretase 1 [4]) does the source give for `O=C(NCCCN1CCOCC1)c1cc2ccc(OCc3cn(Cc4cccc(Cl)c4Cl)nn3)cc2oc1=O` here?
A: 21.1 µM

Q: And the IC50 (Cholinesterase [5])?
A: 1.71 µM

Q: What does the source list for `O=c1ccc2ccc(O)cc2o1` [UMBELLIFERONE]?
A: IC50 (Cholinesterase [3]): 105 µM; IC50 (Beta-secretase 1 [6]): 143 µM

Q: Which IC50 (Acetylcholinesterase [2]) does the source give for `O=c1ccc2cc(O)c(O)cc2o1` [ESCULETIN] here?
A: 6.13 µM

Q: What about the IC50 (Cholinesterase [3]) of the same compound?
A: 8.66 µM

Q: For `O=C1CCOc2ccc(OCCN3CCCCCC3)cc21`, which IC50 [7] is on record?
A: 1.11 µM

Q: What about the IC50 (Acetylcholinesterase [8]) of the same compound?
A: 4.88 µM

Q: What about the IC50 (Cholinesterase [9]) of the same compound?
A: 13.7 µM

Q: What does the source list for `COc1cccc2cc(C(=O)NCc3cnnn3Cc3ccccc3Cl)c(=O)oc12`?
A: IC50 (Beta-secretase 1 [10]): 96.1 µM; IC50 (Acetylcholinesterase [11]): 15.4 µM

Q: Which IC50 (Acetylcholinesterase [8]) does the source give for `O=C1OC2=C(O)C(O)=CCC2C=C1c1ccc(O)c(O)c1` (stereo not drawn) here?
A: 3.04 µM

Q: For `COc1cccc2cc(-c3ccc(NC(=O)c4ccc(CCl)cc4)cc3)c(=O)oc12`, which IC50 (Acetylcholinesterase [8]) is on record?
A: 0.091 µM

Q: Which IC50 (Cholinesterase [12]) does the source give for `COc1cc2cc(-c3ccc(CN(C)Cc4ccccc4)cc3)c(=O)oc2cc1OC` here?
A: 48.9 µM

Q: With `O=c1oc2c(O)cccc2cc1-c1ccccc1` as the compound, how does the IC50 (Cholinesterase [1]) read?
A: 13.1 µM

Q: Which IC50 (Acetylcholinesterase [8]) does the source give for `O=c1oc2ccccc2cc1-c1ccc(Br)cc1` here?
A: 19.2 µM

Q: For `CC(C)c1cc2cc3ccc(=O)oc3cc2o1`, which IC50 (Acetylcholinesterase [13]) is on record?
A: 86.5 µM

Q: What does the source list for `COc1cc2oc(=O)ccc2cc1O` [ISOSCOPOLETIN]?
A: IC50 (Acetylcholinesterase [2]): 174 µM; IC50 (Cholinesterase [3]): 110 µM; IC50 (Beta-secretase 1 [6]): 146 µM

Q: Which IC50 (Acetylcholinesterase [2]) does the source give for `COc1cc2ccc(=O)oc2cc1O` [SCOPOLETIN] here?
A: 154 µM

Q: What about the IC50 (Cholinesterase [3]) of the same compound?
A: 159 µM

Q: What about the IC50 (Beta-secretase 1 [6]) of the same compound?
A: 159 µM

Q: Which IC50 (Acetylcholinesterase [2]) does the source give for `Cc1cc(=O)oc2cc(OCC(=O)N/N=C\c3ccc(C(=O)O)cc3)ccc12` here?
A: 0.802 µM

Q: Which IC50 [14] does the source give for `O=C1O[C@H]([C@@H](O)CO)C(O)=C1O` [ASCORBIC ACID] here?
A: 10.52 µg/mL (≈ 59.7 µM)

Q: With `COc1cc(OC)c2c(=O)c(OCCCCn3cc(CN4C(=O)C(=O)c5ccccc54)nn3)c(-c3ccc(OC)c(OC)c3)oc2c1` as the compound, how does the IC50 (Cholinesterase [3]) read?
A: 11.2 µM

Q: Which IC50 (Cholinesterase [15]) does the source give for `Cc1cc(=O)oc2cc(OCc3nnc(Cc4cccc5c4OCO5)o3)ccc12` here?
A: 24 µM

Q: Which IC50 (Acetylcholinesterase [16]) does the source give for `Cc1cc(=O)oc2cc(OCc3nnc(-c4cc(O)c(O)c(O)c4)o3)ccc12` here?
A: 28.7 µM

Q: What about the Ratio IC50 (Homo sapiens) of the same compound?
A: 1.65

Q: Which results are given for `Cc1cc(=O)oc2cc(OCc3nnc(-c4ccc(O)c(O)c4)o3)ccc12`?
A: IC50 (Acetylcholinesterase [16]): 29.6 µM; Ratio IC50 (Homo sapiens): 1.55

Q: For `COc1ccc2ccc(=O)oc2c1` [HERNIARIN], which IC50 (Acetylcholinesterase [2]) is on record?
A: 104 µM

Q: And the IC50 (Cholinesterase [3])?
A: 119 µM

Q: What about the IC50 (Beta-secretase 1 [6]) of the same compound?
A: 172 µM

Q: With `O=c1c(O)c(-c2ccc(O)c(O)c2)oc2cc(O)cc(O)c12` [QUERCETIN] as the compound, how does the IC50 [14] read?
A: 3.18 µg/mL (≈ 10.5 µM)

Q: Which IC50 [14] does the source give for `Cc1c(C)c2c(c(C)c1O)CCC(C)(C(=O)O)O2` (stereo not drawn) [TROLOX] here?
A: 12.54 µg/mL (≈ 50.1 µM)

Q: With `O=C(O)c1cc2ccc(=O)oc2cc1O` as the compound, how does the IC50 (Acetylcholinesterase [2]) read?
A: 145 µM

Q: And the IC50 (Cholinesterase [3])?
A: 27.2 µM

Q: What about the IC50 (Beta-secretase 1 [6]) of the same compound?
A: 0.34 µM
